ChEMBL document CHEMBL5625250, “Discovery of novel flavonoid-based CDK9 degraders for prostate cancer treatment via a PROTAC strategy” (Eur J Med Chem, 2023)
In brackets after ≈: the same amount, converted by molar mass. Activity calls are given as the source filed them. No cut-off for these calls is given here.

How the values were obtained:
CWR22R = test: Antiproliferative activity against human 22Rv1 cells assessed as reduction in cell viability incubated for 72 hrs by SRB assay; assay type: functional, cell-based; settings: 22Rv1, 72 h
[1] = Solubility of the compound in water at pH 7.4 by shake flask method; assay type: physicochemical
[2] = Solubility of the compound in water at pH 6.0 by shake flask method; assay type: physicochemical
[3] = target: T1, Cyclin-dependent kinase 9 (Homo sapiens, UniProt P50750); test: Inhibition of CDK9 (unknown origin) at 20 nM in presence of ATP by ADP-Glo kinase assay relative to control
T1 sequence (P50750 whole entry): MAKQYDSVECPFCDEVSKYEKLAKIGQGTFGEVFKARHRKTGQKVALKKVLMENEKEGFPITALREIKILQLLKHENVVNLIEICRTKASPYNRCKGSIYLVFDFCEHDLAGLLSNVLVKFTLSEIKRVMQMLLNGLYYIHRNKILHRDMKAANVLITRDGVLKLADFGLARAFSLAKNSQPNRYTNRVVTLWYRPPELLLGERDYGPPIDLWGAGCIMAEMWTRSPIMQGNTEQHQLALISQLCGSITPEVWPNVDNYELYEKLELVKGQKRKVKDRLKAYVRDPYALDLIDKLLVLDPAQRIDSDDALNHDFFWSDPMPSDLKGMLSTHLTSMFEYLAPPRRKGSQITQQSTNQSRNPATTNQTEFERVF

[4] = target: T2, Protein cereblon/Cyclin-dependent kinase 9 (Homo sapiens, UniProt P50750+Q96SW2); test: PROTAC activity at CRBN/CDK9 in human 22Rv1 cells assessed as reduction in cyclin T1 expression at 1.5 uM incubated for 24 hrs by Western blotting analysis; assay type: cell-based
T2 sequence (P50750 whole entry, looked up): as the sequence (P50750 whole entry) above
T2 sequence (Q96SW2 whole entry, looked up): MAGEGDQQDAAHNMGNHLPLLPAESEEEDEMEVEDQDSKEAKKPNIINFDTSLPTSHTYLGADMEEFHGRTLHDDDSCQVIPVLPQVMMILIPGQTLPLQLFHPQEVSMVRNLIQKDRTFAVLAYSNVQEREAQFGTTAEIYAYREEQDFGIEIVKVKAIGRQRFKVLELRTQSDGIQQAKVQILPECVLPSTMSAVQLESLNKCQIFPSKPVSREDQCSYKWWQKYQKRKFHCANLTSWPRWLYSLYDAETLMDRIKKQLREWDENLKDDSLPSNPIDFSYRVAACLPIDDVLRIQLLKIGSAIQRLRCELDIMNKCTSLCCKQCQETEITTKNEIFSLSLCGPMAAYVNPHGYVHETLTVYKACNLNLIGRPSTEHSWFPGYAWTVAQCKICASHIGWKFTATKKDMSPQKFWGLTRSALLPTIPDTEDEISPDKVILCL

[5] = target: T1, Cyclin-dependent kinase 9; test: Inhibition of CDK9 (unknown origin) in presence of ATP by ADP-Glo kinase assay
[6] = target: T2, Protein cereblon/Cyclin-dependent kinase 9; test: PROTAC activity at CRBN/CDK9 in human 22Rv1 cells assessed as degradation of CDK9 protein at 100 nM incubated for 12 hrs by Western blotting analysis; assay type: cell-based

| solubility thermodynamic [1] | solubility thermodynamic [2] | inhibition [3] | Activity [6] | Structure (SMILES) | IC50 (CWR22R) | Activity [4] | IC50 [5] |
| --- | --- | --- | --- | --- | --- | --- | --- |
|  |  |  |  | CN1CC[C@H](c2c(O)cc(O)c3c(=O)cc(-c4ccccc4Cl)oc23)[C@H](O)C1 [ALVOCIDIB] | 240 nM |  |  |
| 45 µg/mL (≈ 55.2 µM) | 117 µg/mL (≈ 144 µM) | 75% |  | COc1cc(O)c2c(=O)cc(-c3ccc(N4CCN(CCC5CCN(c6ccc7c(c6)C(=O)N(C6CCC(=O)NC6=O)C7=O)CC5)CC4)cc3)oc2c1C1=CCN(C)CC1 (stereo not drawn) | 350 nM |  |  |
| < 10 µg/mL | < 10 µg/mL | 79% | Active | COc1cc(O)c2c(=O)cc(-c3ccc(N4CCN(C(=O)CCCOc5cccc6c5C(=O)N(C5CCC(=O)NC5=O)C6=O)CC4)cc3)oc2c1C1=CCN(C)CC1 (stereo not drawn) | 410 nM |  |  |
| 41 µg/mL (≈ 51.2 µM) | 193 µg/mL (≈ 241 µM) | 89.3% |  | COc1cc(O)c2c(=O)cc(-c3ccc(N4CCN(CC5CCN(c6cccc7c6C(=O)N(C6CCC(=O)NC6=O)C7=O)CC5)CC4)cc3)oc2c1C1=CCN(C)CC1 (stereo not drawn) | 70 nM |  |  |
| < 10 µg/mL | < 10 µg/mL | 74.2% | Active | COc1cc(O)c2c(=O)cc(-c3ccc(N4CCN(C(=O)CCCCOc5cccc6c5C(=O)N(C5CCC(=O)NC5=O)C6=O)CC4)cc3)oc2c1C1=CCN(C)CC1 (stereo not drawn) | 860 nM |  |  |

| Structure (SMILES) | solubility thermodynamic [1] | solubility thermodynamic [2] | inhibition [3] | Activity [6] | IC50 (CWR22R) | Activity [4] | IC50 [5] |
| --- | --- | --- | --- | --- | --- | --- | --- |
| COc1cc(O)c2c(=O)cc(-c3ccc(N4CCN(C)CC4)cc3)oc2c1C1=CCN(C)CC1 |  |  | 69.2% |  | 1250 nM | inactive | 66.7 nM |
